Measurements from ChEMBL document CHEMBL6074623, “Carbamoylation at C-8 position of natural 3-arylcoumarin scaffold for the discovery of novel PARP-1 inhibitors with potent anticancer activity” (Eur J Med Chem, 2024).
Calls of active or inactive are those of the source. The calls are words filed in the database; no cut-off is given here.

Key:
SUM149PT [1] = test: Induction of cell cycle arrest in human SUM149PT cells assessed as accumulation of cells at G2/M phase at 0.5 uM incubated for 24 hrs by propidium iodide/RNase A staining based flow cytometry (reference value: 5.54 %); type: functional
HCC1937 = test: Antiproliferative activity against human HCC1937 cells assessed as inhibition of cell growth at 20 uM incubated for 48 hrs by MTT assay relative to control; type: functional
SUM149PT [2] = test: Induction of cell cycle arrest in human SUM149PT cells assessed as accumulation of cells at S phase at 2 uM incubated for 24 hrs by propidium iodide/RNase A staining based flow cytometry (reference value: 16.4 %); type: functional
SUM149PT [3] = test: Induction of apoptosis in human SUM149PT cells assessed as necrotic cells at 0.5 uM incubated for 24 hrs by Annexin V-FITC/PI staining based flow cytometry (reference value: 1.27 %); type: functional
CAPAN-1 [4] = test: Antiproliferative activity against human CAPAN-1 cells assessed as inhibition of cell growth at 5 uM incubated for 48 hrs by MTT assay relative to control; type: functional
SUM149PT [5] = test: Induction of cell cycle arrest in human SUM149PT cells assessed as accumulation of cells at S phase at 0.5 uM incubated for 48 hrs by propidium iodide/RNase A staining based flow cytometry (reference value: 18.7 %); type: functional
SUM149PT [6] = test: Induction of apoptosis in human SUM149PT cells assessed as late apoptotic cells at 2 uM incubated for 48 hrs by Annexin V-FITC/PI staining based flow cytometry (reference value: 1.13 %); type: functional
[7] = target: Poly [ADP-ribose] polymerase 1 (Homo sapiens, UniProt P09874); test: Inhibition of PARP-1 in human SUM149PT cells incubated for 48 hrs by HRP-ELISA; type: cell-based
Poly [ADP-ribose] polymerase 1, sequence (P09874 whole entry): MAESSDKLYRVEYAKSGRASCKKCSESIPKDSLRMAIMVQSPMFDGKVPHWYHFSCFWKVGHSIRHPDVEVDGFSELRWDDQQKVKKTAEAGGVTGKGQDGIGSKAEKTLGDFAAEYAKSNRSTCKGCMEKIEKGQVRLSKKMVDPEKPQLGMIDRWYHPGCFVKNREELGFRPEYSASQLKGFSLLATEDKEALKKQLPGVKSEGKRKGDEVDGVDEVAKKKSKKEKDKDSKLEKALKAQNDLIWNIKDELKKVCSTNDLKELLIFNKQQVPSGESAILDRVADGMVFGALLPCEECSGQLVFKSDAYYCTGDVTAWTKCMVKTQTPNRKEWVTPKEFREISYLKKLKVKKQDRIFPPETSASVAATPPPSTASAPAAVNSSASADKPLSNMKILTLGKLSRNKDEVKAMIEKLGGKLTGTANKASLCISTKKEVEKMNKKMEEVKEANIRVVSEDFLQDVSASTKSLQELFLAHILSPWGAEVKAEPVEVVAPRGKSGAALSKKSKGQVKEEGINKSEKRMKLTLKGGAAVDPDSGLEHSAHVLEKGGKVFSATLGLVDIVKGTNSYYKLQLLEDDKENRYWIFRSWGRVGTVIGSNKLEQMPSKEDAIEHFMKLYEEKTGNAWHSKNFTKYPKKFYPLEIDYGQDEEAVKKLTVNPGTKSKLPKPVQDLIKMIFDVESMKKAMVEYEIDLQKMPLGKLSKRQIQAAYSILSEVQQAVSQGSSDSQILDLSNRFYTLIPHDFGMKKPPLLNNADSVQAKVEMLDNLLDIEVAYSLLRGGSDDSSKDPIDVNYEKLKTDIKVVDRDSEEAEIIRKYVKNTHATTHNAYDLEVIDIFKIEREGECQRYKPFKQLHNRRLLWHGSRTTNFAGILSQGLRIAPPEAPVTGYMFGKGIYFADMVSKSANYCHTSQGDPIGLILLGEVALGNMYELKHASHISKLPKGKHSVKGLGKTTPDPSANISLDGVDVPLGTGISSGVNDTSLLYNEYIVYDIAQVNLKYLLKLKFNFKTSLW

SUM149PT [8] = test: Induction of apoptosis in human SUM149PT cells assessed as early apoptotic cells at 2 uM incubated for 24 hrs by Annexin V-FITC/PI staining based flow cytometry (reference value: 2.59 %); type: functional
Mitochondrial membrane [9] = test: Induction of mitochondrial membrane potential loss in human SUM149PT cells incubated for 48 hrs by JC-1 staining based confocal laser scanning microscopic analysis
SUM149PT [10] = test: Induction of apoptosis in human SUM149PT cells assessed as necrotic cells at 0.1 uM incubated for 24 hrs by Annexin V-FITC/PI staining based flow cytometry (reference value: 1.27 %); type: functional
SUM149PT [11] = test: Induction of apoptosis in human SUM149PT cells assessed as upregulation of BAX expression incubated for 48 hrs by Western blotting analysis; type: functional, cell-based
SUM149PT [12] = test: Induction of apoptosis in human SUM149PT cells assessed as late apoptotic cells at 2 uM incubated for 24 hrs by Annexin V-FITC/PI staining based flow cytometry (reference value: 2.45 %); type: functional
SUM149PT [13] = test: Induction of apoptosis in human SUM149PT cells assessed as viable cells at 0.1 uM incubated for 48 hrs by Annexin V-FITC/PI staining based flow cytometry (reference value: 96.1 %); type: functional; conditions: read-out: Activity
SUM149PT [14] = test: Antiproliferative activity against human SUM149PT cells assessed as inhibition of cell growth at 5 uM incubated for 48 hrs by MTT assay relative to control; type: functional
SUM149PT [15] = test: Induction of apoptosis in human SUM149PT cells assessed as viable cells at 0.1 uM incubated for 24 hrs by Annexin V-FITC/PI staining based flow cytometry (reference value: 93.7 %); type: functional; conditions: read-out: Activity
CAPAN-1 [16] = test: Antiproliferative activity against human CAPAN-1 cells assessed as inhibition of cell growth at 20 uM incubated for 48 hrs by MTT assay relative to control; type: functional
SUM149PT [17] = test: Induction of apoptosis in human SUM149PT cells assessed as early apoptotic cells at 0.5 uM incubated for 24 hrs by Annexin V-FITC/PI staining based flow cytometry (reference value: 2.59 %); type: functional
[18] = target: Poly [ADP-ribose] polymerase 2 (Homo sapiens, UniProt Q9UGN5); test: Inhibition of PARP-2 in human SUM149PT cells incubated for 48 hrs by HRP-ELISA; type: cell-based
Poly [ADP-ribose] polymerase 2, sequence (Q9UGN5 whole entry): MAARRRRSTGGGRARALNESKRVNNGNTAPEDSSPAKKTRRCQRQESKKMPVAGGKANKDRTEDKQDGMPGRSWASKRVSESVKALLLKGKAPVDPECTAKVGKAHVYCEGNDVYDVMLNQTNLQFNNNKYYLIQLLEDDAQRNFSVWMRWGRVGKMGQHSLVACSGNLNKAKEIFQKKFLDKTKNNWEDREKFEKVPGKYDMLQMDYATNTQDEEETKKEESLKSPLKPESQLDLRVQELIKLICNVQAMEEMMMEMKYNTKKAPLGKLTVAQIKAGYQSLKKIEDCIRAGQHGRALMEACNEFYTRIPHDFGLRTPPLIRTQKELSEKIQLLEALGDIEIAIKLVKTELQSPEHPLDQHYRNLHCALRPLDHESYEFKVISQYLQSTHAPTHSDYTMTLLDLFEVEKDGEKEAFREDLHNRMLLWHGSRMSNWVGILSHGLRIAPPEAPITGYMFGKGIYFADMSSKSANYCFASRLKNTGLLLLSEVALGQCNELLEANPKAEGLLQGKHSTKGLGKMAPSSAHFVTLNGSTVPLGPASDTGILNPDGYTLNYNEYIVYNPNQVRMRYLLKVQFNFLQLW

SUM149PT [19] = test: Induction of cell cycle arrest in human SUM149PT cells assessed as accumulation of cells at G0/G1 phase at 2 uM incubated for 24 hrs by propidium iodide/RNase A staining based flow cytometry (reference value: 72.8 %); type: functional
SUM149PT [20] = test: Induction of apoptosis in human SUM149PT cells assessed as viable cells at 2 uM incubated for 48 hrs by Annexin V-FITC/PI staining based flow cytometry (reference value: 96.1 %); type: functional; conditions: read-out: Activity
SUM149PT [21] = test: Induction of apoptosis in human SUM149PT cells assessed as viable cells at 0.5 uM incubated for 24 hrs by Annexin V-FITC/PI staining based flow cytometry (reference value: 93.7 %); type: functional; conditions: read-out: Activity
SUM149PT [22] = test: Antiproliferative activity against human SUM149PT cells assessed as inhibition of cell growth at 20 uM incubated for 48 hrs by MTT assay relative to control; type: functional
SUM149PT [23] = test: Induction of apoptosis in human SUM149PT cells assessed as necrotic cells at 2 uM incubated for 24 hrs by Annexin V-FITC/PI staining based flow cytometry (reference value: 1.27 %); type: functional
SUM149PT [24] = test: Induction of cell cycle arrest in human SUM149PT cells assessed as accumulation of cells at S phase at 0.5 uM incubated for 24 hrs by propidium iodide/RNase A staining based flow cytometry (reference value: 16.4 %); type: functional
Mitochondrial membrane [25] = test: Induction of mitochondrial membrane potential loss in human SUM149PT cells at 2 uM incubated for 48 hrs by JC-1 staining based confocal laser scanning microscopic analysis relative to niraparib
SUM149PT [26] = test: Induction of ROS in human SUM149PT cells assessed as increase in fluorescence intensity incubated for 48 hrs by DCFH-DA staining based confocal laser scanning microscopic analysis; type: functional, cell-based
SUM149PT [27] = test: Induction of DNA double strand breaks in human SUM149PT cells assessed as increase in gamma-H2AX level incubated for 48 hrs by Western blotting analysis; type: functional, cell-based
SUM149PT [28] = test: Induction of apoptosis in human SUM149PT cells assessed as necrotic cells at 0.1 uM incubated for 48 hrs by Annexin V-FITC/PI staining based flow cytometry (reference value: 0.51 %); type: functional
SUM149PT [29] = test: Induction of cell cycle arrest in human SUM149PT cells assessed as accumulation of cells at G2/M phase at 0.1 uM incubated for 24 hrs by propidium iodide/RNase A staining based flow cytometry (reference value: 5.54 %); type: functional

Compound `COc1cccc(-c2cc3cc(F)cc(C(N)=O)c3oc2=O)c1` has an Activity (SUM149PT [1]) of 22.3%, an inhibition at 20 µM (HCC1937) of over 60% and an Activity (SUM149PT [2]) of 22.3%. It also gave an Activity (SUM149PT [3]) of 2.31%, an inhibition at 5 µM (CAPAN-1 [4]) of over 50% and an Activity (SUM149PT [5]) of 25.3%. It also gave an Activity (SUM149PT [6]) of 6.85%, an IC50 [7] of 2.53 nM and an Activity (SUM149PT [8]) of 9.8%. The Activity (Mitochondrial membrane [9]) was “Dose-dependent-effect”, the Activity (SUM149PT [10]) was 1.86% and the Activity (SUM149PT [11]) was “Dose-dependent-effect”. For the same compound, the Activity (SUM149PT [12]) was 6.87%, the viability at 0.1 µM (SUM149PT [13]) was 87.3% and the inhibition at 5 µM (SUM149PT [14]) was over 70%. For the same compound, the viability at 0.1 µM (SUM149PT [15]) was 91.5%, the inhibition at 20 µM (CAPAN-1 [16]) was over 60% and the Activity (SUM149PT [17]) was 5.61%. The IC50 [18] was 6.45 nM, the Activity (SUM149PT [19]) was 39.9% and the viability at 2 µM (SUM149PT [20]) was 61%. For the same compound, the viability at 0.5 µM (SUM149PT [21]) was 86.6%, the inhibition at 20 µM (SUM149PT [22]) was over 80% and the Activity (SUM149PT [23]) was 6.61%. The Activity (SUM149PT [24]) was 17.4%, the Activity (Mitochondrial membrane [25]) was “Active” and the Activity (SUM149PT [26]) was “Dose-dependent-effect”. For the same compound, the Activity (SUM149PT [27]) was “Dose-dependent-effect”, the Activity (SUM149PT [28]) was 1.22% and the Activity (SUM149PT [29]) was 6.91%.
